From patent US10844077B2, “Thiazolyl-containing compounds for treating proliferative diseases” (Dana-Farber Cancer Institute, Inc., priority 2014, dated 2020)
Where “and” joins values, the source holds several entries; their conditions need not be identical. Equal entries are not always repeated.

Legend:
[1] = tested on: AurA, AurB, AurC; experiment: KINATIV assay; assay type: cell-based; details: 1 μM, 90 minutes, BCWM.1 cells
Procedure: (§1) The cells were harvested and lysed. The lysates were directly labeled with an ATP-biotin probe. Bound kinases were identified and quantitated by ACTIVX as described in Patricelli et al., Biochemistry, 2007, 46(2): 350-358. The compounds were tested in duplicates against duplicate or quadruplicate control samples.

[2] = biological target: BLK (Homo sapiens (Human), UniProt P51451); experiment: KINATIV assay; assay type: cell-based; details: 1 μM, 90 minutes, BCWM.1 cells
Procedure: as §1

[3] = biological target: CK1g2 (Homo sapiens (Human), UniProt P78368); experiment: KINATIV assay; assay type: cell-based; details: 1 μM, 90 minutes, BCWM.1 cells
Procedure: as §1

[4] = biological target: CLK3 (Homo sapiens (Human), UniProt P49761); experiment: KINATIV assay; assay type: cell-based; details: 1 μM, 90 minutes, BCWM.1 cells
Procedure: as §1

[5] = biological target: CaMK2d (Homo sapiens (Human), UniProt Q13557); experiment: KINATIV assay; assay type: cell-based; details: 1 μM, 90 minutes, BCWM.1 cells
Procedure: as §1

[6] = biological target: EphB2 (Homo sapiens (Human), UniProt P29323); experiment: KINATIV assay; assay type: cell-based; details: 1 μM, 90 minutes, BCWM.1 cells
Procedure: as §1

[7] = biological target: FRAP (Homo sapiens (Human), UniProt P42345); experiment: KINATIV assay; assay type: cell-based; details: 1 μM, 90 minutes, BCWM.1 cells
Procedure: as §1

[8] = biological target: FRK (Homo sapiens (Human), UniProt P42685); experiment: KINATIV assay; assay type: cell-based; details: 1 μM, 90 minutes, BCWM.1 cells
Procedure: as §1

[9] = tested on: FYN, SRC, YES; experiment: KINATIV assay; assay type: cell-based; details: 1 μM, 90 minutes, BCWM.1 cells
Procedure: as §1

[10] = biological target: GCN2 (Homo sapiens (Human), UniProt Q9P2K8); experiment: KINATIV assay; assay type: cell-based; details: 1 μM, 90 minutes, BCWM.1 cells
Procedure: as §1

[11] = biological target: GSK3A (Homo sapiens (Human), UniProt P49840); experiment: KINATIV assay; assay type: cell-based; details: 1 μM, 90 minutes, BCWM.1 cells
Procedure: as §1

[12] = biological target: IRE1 (Homo sapiens (Human), UniProt O75460); experiment: KINATIV assay; assay type: cell-based; details: 1 μM, 90 minutes, BCWM.1 cells
Procedure: as §1

[13] = biological target: KHS1 (Homo sapiens (Human), UniProt Q9Y4K4); experiment: KINATIV assay; assay type: cell-based; details: 1 μM, 90 minutes, BCWM.1 cells
Procedure: as §1

[14] = tested on: KSR1, KSR2; experiment: KINATIV assay; assay type: cell-based; details: 1 μM, 90 minutes, BCWM.1 cells
Procedure: as §1

[15] = biological target: LATS2 (Homo sapiens (Human), UniProt Q9NRM7); experiment: KINATIV assay; assay type: cell-based; details: 1 μM, 90 minutes, BCWM.1 cells
Procedure: as §1

[16] = biological target: LYN (Homo sapiens (Human), UniProt P07948); experiment: KINATIV assay; assay type: cell-based; details: 1 μM, 90 minutes, BCWM.1 cells
Procedure: as §1

[17] = biological target: MAP2K1 (Homo sapiens (Human), UniProt Q02750); experiment: KINATIV assay; assay type: cell-based; details: 1 μM, 90 minutes, BCWM.1 cells
Procedure: as §1

[18] = biological target: MAP2K6 (Homo sapiens (Human), UniProt P52564); experiment: KINATIV assay; assay type: cell-based; details: 1 μM, 90 minutes, BCWM.1 cells
Procedure: as §1

[19] = biological target: MAP3K3 (Homo sapiens (Human), UniProt Q99759); experiment: KINATIV assay; assay type: cell-based; details: 1 μM, 90 minutes, BCWM.1 cells
Procedure: as §1

[20] = biological target: MAP3K4 (Homo sapiens (Human), UniProt Q9Y6R4); experiment: KINATIV assay; assay type: cell-based; details: 1 μM, 90 minutes, BCWM.1 cells
Procedure: as §1

[21] = tested on: MARK1, MARK2; experiment: KINATIV assay; assay type: cell-based; details: 1 μM, 90 minutes, BCWM.1 cells
Procedure: as §1

[22] = tested on: MARK2, MARK3; experiment: KINATIV assay; assay type: cell-based; details: 1 μM, 90 minutes, BCWM.1 cells
Procedure: as §1

[23] = tested on: MST1, MST2; experiment: KINATIV assay; assay type: cell-based; details: 1 μM, 90 minutes, BCWM.1 cells
Procedure: as §1

[24] = tested on: MST4, YSK1; experiment: KINATIV assay; assay type: cell-based; details: 1 μM, 90 minutes, BCWM.1 cells
Procedure: as §1

[25] = biological target: NEK3 (Homo sapiens (Human), UniProt P51956); experiment: KINATIV assay; assay type: cell-based; details: 1 μM, 90 minutes, BCWM.1 cells
Procedure: as §1

[26] = biological target: NEK4 (Homo sapiens (Human), UniProt P51957); experiment: KINATIV assay; assay type: cell-based; details: 1 μM, 90 minutes, BCWM.1 cells
Procedure: as §1

[27] = biological target: PEK (Homo sapiens (Human), UniProt Q9NZJ5); experiment: KINATIV assay; assay type: cell-based; details: 1 μM, 90 minutes, BCWM.1 cells
Procedure: as §1

[28] = biological target: PIK3CB (Homo sapiens (Human), UniProt P42338); experiment: KINATIV assay; assay type: cell-based; details: 1 μM, 90 minutes, BCWM.1 cells
Procedure: as §1

[29] = tested on: PITSLRE; experiment: KINATIV assay; assay type: cell-based; details: 1 μM, 90 minutes, BCWM.1 cells
Procedure: as §1

[30] = biological target: RSK2 domain2 (Homo sapiens (Human), UniProt P51812); experiment: KINATIV assay; assay type: cell-based; details: 1 μM, 90 minutes, BCWM.1 cells
Procedure: as §1

[31] = biological target: RSK3 domain1 (Homo sapiens (Human), UniProt Q15349); experiment: KINATIV assay; assay type: cell-based; details: 1 μM, 90 minutes, BCWM.1 cells
Procedure: as §1

[32] = biological target: STLK6 (Homo sapiens (Human), UniProt Q9C0K7); experiment: KINATIV assay; assay type: cell-based; details: 1 μM, 90 minutes, BCWM.1 cells
Procedure: as §1

[33] = biological target: TBK1 (Homo sapiens (Human), UniProt Q9UHD2); experiment: KINATIV assay; assay type: cell-based; details: 1 μM, 90 minutes, BCWM.1 cells
Procedure: as §1

[34] = biological target: TLK1 (Homo sapiens (Human), UniProt Q9UKI8); experiment: KINATIV assay; assay type: cell-based; details: 1 μM, 90 minutes, BCWM.1 cells
Procedure: as §1

[35] = biological target: p38b (Homo sapiens (Human), UniProt Q15759); experiment: KINATIV assay; assay type: cell-based; details: 1 μM, 90 minutes, BCWM.1 cells
Procedure: as §1

[36] = biological target: MAPKAPK3 (Homo sapiens (Human), UniProt Q16644)
Procedure: as §1

[37] = biological target: PCTAIRE1 (Homo sapiens (Human), UniProt Q00536)
Procedure: as §1

[38] = biological target: PCTAIRE2 (Homo sapiens (Human), UniProt Q00537)
Procedure: as §1

[39] = biological target: PRP4 (Homo sapiens (Human), UniProt Q13523)
Procedure: as §1

[40] = biological target: PRPK (Homo sapiens (Human), UniProt Q96S44)
Procedure: as §1

[41] = tested on: PCTAIRE1, PCTAIRE3; experiment: KINATIV assay; assay type: cell-based; details: 1 μM, 90 minutes, BCWM.1 cells
From the text: (§2) The cells were harvested and lysed.

[42] = tested on: PCTAIRE2, PCTAIRE3; experiment: KINATIV assay; assay type: cell-based; details: 1 μM, 90 minutes, BCWM.1 cells
From the text: as §2

MAP2K6, sequence (P52564 whole entry): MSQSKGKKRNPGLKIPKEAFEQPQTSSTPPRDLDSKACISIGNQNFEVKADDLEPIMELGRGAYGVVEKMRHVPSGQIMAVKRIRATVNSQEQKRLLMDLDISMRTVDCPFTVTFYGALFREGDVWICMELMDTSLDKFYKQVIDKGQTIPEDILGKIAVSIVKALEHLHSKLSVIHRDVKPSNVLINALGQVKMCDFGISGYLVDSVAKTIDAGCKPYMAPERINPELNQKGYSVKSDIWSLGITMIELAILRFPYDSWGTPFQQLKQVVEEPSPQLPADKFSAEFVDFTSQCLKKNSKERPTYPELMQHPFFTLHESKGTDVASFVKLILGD
TLK1, sequence (Q9UKI8 whole entry): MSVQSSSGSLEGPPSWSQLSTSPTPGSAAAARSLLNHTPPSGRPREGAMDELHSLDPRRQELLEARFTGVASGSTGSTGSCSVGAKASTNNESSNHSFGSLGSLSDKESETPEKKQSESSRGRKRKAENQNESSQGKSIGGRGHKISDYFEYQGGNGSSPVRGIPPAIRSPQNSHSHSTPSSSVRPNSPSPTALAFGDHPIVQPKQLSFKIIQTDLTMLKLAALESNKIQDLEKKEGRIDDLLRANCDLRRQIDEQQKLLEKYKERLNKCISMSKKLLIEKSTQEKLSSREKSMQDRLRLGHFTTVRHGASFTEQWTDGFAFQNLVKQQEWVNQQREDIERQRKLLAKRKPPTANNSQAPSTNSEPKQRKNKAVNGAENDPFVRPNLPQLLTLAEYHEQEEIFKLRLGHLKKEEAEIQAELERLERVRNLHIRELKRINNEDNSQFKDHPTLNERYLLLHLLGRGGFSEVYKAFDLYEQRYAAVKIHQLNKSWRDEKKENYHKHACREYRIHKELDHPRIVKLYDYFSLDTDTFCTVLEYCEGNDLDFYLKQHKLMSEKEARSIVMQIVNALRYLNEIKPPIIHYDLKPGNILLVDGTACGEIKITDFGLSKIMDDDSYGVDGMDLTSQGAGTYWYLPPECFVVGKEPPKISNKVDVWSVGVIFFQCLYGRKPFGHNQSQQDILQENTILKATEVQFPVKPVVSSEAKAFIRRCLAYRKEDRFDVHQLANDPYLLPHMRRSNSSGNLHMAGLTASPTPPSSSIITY
GCN2, sequence (Q9P2K8 whole entry): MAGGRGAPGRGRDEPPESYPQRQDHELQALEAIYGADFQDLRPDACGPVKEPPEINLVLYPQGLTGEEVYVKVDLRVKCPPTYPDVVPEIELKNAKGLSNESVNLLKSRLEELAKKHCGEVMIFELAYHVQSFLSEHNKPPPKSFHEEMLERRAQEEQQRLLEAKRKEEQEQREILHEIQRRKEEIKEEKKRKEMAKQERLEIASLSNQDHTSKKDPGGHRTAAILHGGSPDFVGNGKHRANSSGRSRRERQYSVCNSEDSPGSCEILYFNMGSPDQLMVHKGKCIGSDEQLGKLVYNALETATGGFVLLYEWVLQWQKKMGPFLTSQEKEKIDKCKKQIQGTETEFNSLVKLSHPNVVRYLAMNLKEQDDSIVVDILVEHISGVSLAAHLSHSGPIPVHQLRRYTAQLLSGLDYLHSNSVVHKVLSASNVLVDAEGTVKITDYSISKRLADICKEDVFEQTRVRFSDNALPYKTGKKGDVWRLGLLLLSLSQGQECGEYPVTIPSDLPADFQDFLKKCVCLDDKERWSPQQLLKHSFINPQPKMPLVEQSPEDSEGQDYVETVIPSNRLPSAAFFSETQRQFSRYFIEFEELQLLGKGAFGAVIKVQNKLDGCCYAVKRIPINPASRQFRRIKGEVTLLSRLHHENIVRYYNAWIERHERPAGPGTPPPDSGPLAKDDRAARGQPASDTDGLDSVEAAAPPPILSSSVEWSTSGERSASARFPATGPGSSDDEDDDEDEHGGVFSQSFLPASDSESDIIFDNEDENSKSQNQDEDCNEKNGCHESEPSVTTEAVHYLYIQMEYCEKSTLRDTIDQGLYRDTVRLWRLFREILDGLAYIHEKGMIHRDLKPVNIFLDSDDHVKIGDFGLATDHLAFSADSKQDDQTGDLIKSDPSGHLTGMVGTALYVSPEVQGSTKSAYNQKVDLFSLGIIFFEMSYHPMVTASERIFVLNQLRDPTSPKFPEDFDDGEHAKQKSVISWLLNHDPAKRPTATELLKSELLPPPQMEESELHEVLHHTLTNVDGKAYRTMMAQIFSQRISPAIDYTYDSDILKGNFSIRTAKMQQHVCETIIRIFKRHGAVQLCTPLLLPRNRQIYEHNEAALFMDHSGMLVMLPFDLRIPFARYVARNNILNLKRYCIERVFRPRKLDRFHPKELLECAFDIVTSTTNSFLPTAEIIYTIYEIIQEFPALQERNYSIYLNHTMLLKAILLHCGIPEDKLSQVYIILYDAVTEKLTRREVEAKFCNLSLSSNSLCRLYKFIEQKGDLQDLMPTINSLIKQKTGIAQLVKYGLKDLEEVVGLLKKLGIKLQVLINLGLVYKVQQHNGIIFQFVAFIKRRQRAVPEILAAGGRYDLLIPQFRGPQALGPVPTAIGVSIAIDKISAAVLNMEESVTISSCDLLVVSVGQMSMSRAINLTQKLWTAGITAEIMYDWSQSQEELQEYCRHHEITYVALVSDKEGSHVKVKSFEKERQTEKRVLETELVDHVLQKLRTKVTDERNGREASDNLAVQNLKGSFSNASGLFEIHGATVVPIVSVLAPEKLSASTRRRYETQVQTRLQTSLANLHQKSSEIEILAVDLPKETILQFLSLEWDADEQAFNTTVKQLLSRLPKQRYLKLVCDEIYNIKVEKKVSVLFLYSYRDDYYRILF
LYN, sequence (P07948 whole entry): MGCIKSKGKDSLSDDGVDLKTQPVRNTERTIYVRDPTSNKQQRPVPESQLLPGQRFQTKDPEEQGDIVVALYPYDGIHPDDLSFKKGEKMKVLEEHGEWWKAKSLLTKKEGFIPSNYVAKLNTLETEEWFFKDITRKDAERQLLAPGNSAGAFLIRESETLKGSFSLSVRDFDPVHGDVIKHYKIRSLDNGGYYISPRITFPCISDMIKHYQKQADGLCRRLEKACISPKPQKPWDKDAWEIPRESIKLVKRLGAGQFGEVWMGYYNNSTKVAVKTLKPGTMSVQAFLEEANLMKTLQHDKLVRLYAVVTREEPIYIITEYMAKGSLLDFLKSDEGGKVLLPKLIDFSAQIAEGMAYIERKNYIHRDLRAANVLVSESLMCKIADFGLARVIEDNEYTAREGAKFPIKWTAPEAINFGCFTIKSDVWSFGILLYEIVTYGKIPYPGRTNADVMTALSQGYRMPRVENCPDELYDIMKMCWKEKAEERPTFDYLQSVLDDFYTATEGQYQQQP
PRPK, sequence (Q96S44 whole entry, looked up): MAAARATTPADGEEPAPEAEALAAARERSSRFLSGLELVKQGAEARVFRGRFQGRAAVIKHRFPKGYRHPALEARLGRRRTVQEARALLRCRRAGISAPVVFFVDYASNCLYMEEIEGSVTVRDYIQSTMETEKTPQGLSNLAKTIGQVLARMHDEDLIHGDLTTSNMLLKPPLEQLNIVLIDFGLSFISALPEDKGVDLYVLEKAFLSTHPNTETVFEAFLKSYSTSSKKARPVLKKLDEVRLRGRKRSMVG
p38b, sequence (Q15759 whole entry): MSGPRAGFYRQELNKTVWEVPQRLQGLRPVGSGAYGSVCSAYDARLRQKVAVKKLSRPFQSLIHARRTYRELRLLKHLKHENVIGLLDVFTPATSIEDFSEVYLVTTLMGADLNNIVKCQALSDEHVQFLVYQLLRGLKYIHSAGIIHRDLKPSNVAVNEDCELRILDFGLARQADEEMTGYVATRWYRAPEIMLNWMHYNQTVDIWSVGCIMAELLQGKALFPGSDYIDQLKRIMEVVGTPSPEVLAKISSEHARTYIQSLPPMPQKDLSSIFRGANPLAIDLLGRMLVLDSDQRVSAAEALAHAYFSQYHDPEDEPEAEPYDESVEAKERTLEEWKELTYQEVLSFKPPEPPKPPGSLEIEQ
GSK3A, sequence (P49840 whole entry): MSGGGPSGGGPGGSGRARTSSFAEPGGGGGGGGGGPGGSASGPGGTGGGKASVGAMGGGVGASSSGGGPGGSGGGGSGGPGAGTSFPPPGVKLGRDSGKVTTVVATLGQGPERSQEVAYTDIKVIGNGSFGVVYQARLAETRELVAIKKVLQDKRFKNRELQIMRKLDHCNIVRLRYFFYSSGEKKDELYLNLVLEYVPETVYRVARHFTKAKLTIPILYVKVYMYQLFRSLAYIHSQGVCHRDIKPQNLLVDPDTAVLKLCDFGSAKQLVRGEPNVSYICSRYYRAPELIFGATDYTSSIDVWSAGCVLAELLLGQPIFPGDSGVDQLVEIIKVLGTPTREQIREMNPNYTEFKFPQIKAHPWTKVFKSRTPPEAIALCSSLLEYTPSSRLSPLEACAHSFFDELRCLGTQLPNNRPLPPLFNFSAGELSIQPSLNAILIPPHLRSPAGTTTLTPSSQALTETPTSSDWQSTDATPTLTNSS
CaMK2d, sequence (Q13557 whole entry): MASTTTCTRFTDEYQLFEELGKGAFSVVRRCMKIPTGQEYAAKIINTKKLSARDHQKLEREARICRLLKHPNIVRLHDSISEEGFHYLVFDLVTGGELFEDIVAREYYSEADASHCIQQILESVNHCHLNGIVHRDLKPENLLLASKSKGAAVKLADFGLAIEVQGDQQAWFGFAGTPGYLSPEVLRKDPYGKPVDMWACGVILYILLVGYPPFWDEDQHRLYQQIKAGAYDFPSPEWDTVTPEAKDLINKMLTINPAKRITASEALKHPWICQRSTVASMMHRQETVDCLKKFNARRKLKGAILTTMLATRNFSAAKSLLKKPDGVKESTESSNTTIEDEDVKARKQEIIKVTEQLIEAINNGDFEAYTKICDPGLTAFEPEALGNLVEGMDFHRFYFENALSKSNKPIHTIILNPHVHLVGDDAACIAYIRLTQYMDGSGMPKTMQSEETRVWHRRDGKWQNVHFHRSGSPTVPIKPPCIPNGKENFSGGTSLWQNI

C=CC(=O)N1CCC(Cn2ccc(Nc3ncc(C(=O)Nc4c(C)cccc4Cl)s3)n2)C1 (stereo not drawn) [II-1]
% change of MS signal compared to control sample [1]: −3.6% | % change of MS signal compared to control sample [2]: >95% | % change of MS signal compared to control sample [3]: −1.1% | % change of MS signal compared to control sample [4]: −22.6% | % change of MS signal compared to control sample [5]: −14.8% | % change of MS signal compared to control sample [6]: >90% | % change of MS signal compared to control sample [7]: 8.6% | % change of MS signal compared to control sample [8]: 84.0% | % change of MS signal compared to control sample [9]: 88.1% | % change of MS signal compared to control sample [10]: −6.2% and −4.1% | % change of MS signal compared to control sample [11]: −11.8% | % change of MS signal compared to control sample [12]: −29.5% | % change of MS signal compared to control sample [13]: −0.6% | % change of MS signal compared to control sample [14]: −8.7% | % change of MS signal compared to control sample [15]: −2.9% | % change of MS signal compared to control sample [16]: 88.1% and >90% | % change of MS signal compared to control sample [17]: −23.4% | % change of MS signal compared to control sample [18]: −8.3% and −12.6% | % change of MS signal compared to control sample [19]: 13.7% | % change of MS signal compared to control sample [20]: −23.9% | % change of MS signal compared to control sample [21]: 20.9% | % change of MS signal compared to control sample [22]: −10.1% | % change of MS signal compared to control sample [23]: 3.1% | % change of MS signal compared to control sample [24]: 9.2% | % change of MS signal compared to control sample [25]: 8.1% | % change of MS signal compared to control sample [26]: 18.5% | % change of MS signal compared to control sample [27]: −31.0% | % change of MS signal compared to control sample [28]: −64.9% | % change of MS signal compared to control sample [29]: −16.1% | % change of MS signal compared to control sample [30]: 9.7% | % change of MS signal compared to control sample [31]: −58.4% | % change of MS signal compared to control sample [32]: −0.8% | % change of MS signal compared to control sample [33]: −30.2% | % change of MS signal compared to control sample [34]: 7.1% and 5.7% | % change of MS signal compared to control sample [35]: −19.0% | % change of MS signal compared to control sample [36]: 6.2% | % change of MS signal compared to control sample [37]: 38.4% | % change of MS signal compared to control sample [38]: 7.7% | % change of MS signal compared to control sample [39]: 6.9% | % change of MS signal compared to control sample [40]: −5.2% | % change of MS signal compared to control sample [41]: 11.4% | % change of MS signal compared to control sample [42]: 31.8%
